# In PubChem BioAssay AID1259407 (Chemical Carcinogenesis Research Information System (CCRIS), 2018):
# Activity calls are given as the source filed them. No rule for the calls is given here.
# Test system: CCRIS mutagenicity, Ames/micronucleus/aberration tests
# Experiment: CCRIS mutagenicity studies
# [1] = Test System: AMES SALMONELLA TYPHIMURIUM, Strain/Indicator: TA98, Metabolic Activation: RAT, LIVER, S-9, AROCLOR 1254, Method: STANDARD PLATE
# [2] = Test System: AMES SALMONELLA TYPHIMURIUM, Strain/Indicator: TA100, Metabolic Activation: RAT, LIVER, S-9, AROCLOR 1254, Method: STANDARD PLATE
# [3] = Test System: AMES SALMONELLA TYPHIMURIUM, Strain/Indicator: TA98, Metabolic Activation: NONE, Method: STANDARD PLATE
# [4] = Test System: AMES SALMONELLA TYPHIMURIUM, Strain/Indicator: TA100, Metabolic Activation: NONE, Method: STANDARD PLATE
# [5] = Test System: Mouse lymphoma, Strain/Indicator: L5178Y (tk+/tk-), Metabolic Activation: None, Method: Suspension/plate
# [6] = Test System: AMES SALMONELLA TYPHIMURIUM, Strain/Indicator: TA97, Metabolic Activation: NONE, Method: PREINCUBATION
# [7] = Test System: AMES SALMONELLA TYPHIMURIUM, Strain/Indicator: TA98, Metabolic Activation: NONE, Method: PREINCUBATION
# [8] = Test System: AMES SALMONELLA TYPHIMURIUM, Strain/Indicator: TA100, Metabolic Activation: NONE, Method: PREINCUBATION
# [9] = Test System: AMES SALMONELLA TYPHIMURIUM, Strain/Indicator: TA1535, Metabolic Activation: NONE, Method: PREINCUBATION
# [10] = Test System: AMES SALMONELLA TYPHIMURIUM, Strain/Indicator: TA1535, Metabolic Activation: RAT, LIVER, S-9, AROCLOR 1254, Method: STANDARD PLATE
# [11] = Test System: AMES SALMONELLA TYPHIMURIUM, Strain/Indicator: TA1538, Metabolic Activation: RAT, LIVER, S-9, AROCLOR 1254, Method: STANDARD PLATE
smiles,measurement,setting,value
O=S(=O)(O)c1ccc2ccc3cccc4ccc1c2c34,mutagenic call,[1],inactive; negative
same,mutagenic call,[2],active; positive
CC(=O)N(O)c1ccc(Cl)c(Cl)c1,mutagenic call,"Test System: AMES SALMONELLA TYPHIMURIUM, Strain/Indicator: TA97, Metabolic Activation: NONE, Method: STANDARD PLATE",inactive; negative
same,mutagenic call,"Test System: AMES SALMONELLA TYPHIMURIUM, Strain/Indicator: TA97, Metabolic Activation: RAT, LIVER, S-9, AROCLOR 1254, Method: STANDARD PLATE",inactive; negative
same,mutagenic call,[3],inactive; negative
same,mutagenic call,[1],inactive; negative
same,mutagenic call,[4],inactive; negative
same,mutagenic call,[2],inactive; negative
same,mutagenic call,"Test System: AMES SALMONELLA TYPHIMURIUM, Strain/Indicator: TA104, Metabolic Activation: NONE, Method: STANDARD PLATE",inactive; negative
same,mutagenic call,"Test System: AMES SALMONELLA TYPHIMURIUM, Strain/Indicator: TA104, Metabolic Activation: RAT, LIVER, S-9, AROCLOR 1254, Method: STANDARD PLATE",inactive; negative
CCC1(O)C(=O)OCc2c1cc1n(c2=O)Cc2cc3c(N)cccc3nc2-1 (stereo unspecified),mutagenic call,[5],active; positive
same,mutagenic call,"Test System: Mouse lymphoma, Strain/Indicator: L5178Y (tk+/tk-), Metabolic Activation: Rat, Liver, S-9, Aroclor 1254, Method: Suspension/plate",active; positive
Cc1c(C)c2c(c(C)c1OC(=O)CCC(=O)O)CC[C@@](C)(CCC[C@H](C)CCC[C@H](C)CCCC(C)C)O2,mutagenic call,"Test System: AMES SALMONELLA TYPHIMURIUM, Strain/Indicator: TA97, Metabolic Activation: HAMSTER, LIVER, S-9, AROCLOR 1254 (10 OR 30%), Method: PREINCUBATION",inactive; negative
same,mutagenic call,[6],inactive; negative
same,mutagenic call,"Test System: AMES SALMONELLA TYPHIMURIUM, Strain/Indicator: TA97, Metabolic Activation: RAT, LIVER, S-9, AROCLOR 1254 (10 OR 30%), Method: PREINCUBATION",inactive; negative
same,mutagenic call,"Test System: AMES SALMONELLA TYPHIMURIUM, Strain/Indicator: TA98, Metabolic Activation: HAMSTER, LIVER, S-9, AROCLOR 1254 (10 OR 30%), Method: PREINCUBATION",inactive; negative
same,mutagenic call,[7],inactive; negative
same,mutagenic call,"Test System: AMES SALMONELLA TYPHIMURIUM, Strain/Indicator: TA98, Metabolic Activation: RAT, LIVER, S-9, AROCLOR 1254 (10 OR 30%), Method: PREINCUBATION",inactive; negative
same,mutagenic call,"Test System: AMES SALMONELLA TYPHIMURIUM, Strain/Indicator: TA100, Metabolic Activation: HAMSTER, LIVER, S-9, AROCLOR 1254 (10 OR 30%), Method: PREINCUBATION",inactive; negative
same,mutagenic call,[8],inactive; negative
same,mutagenic call,"Test System: AMES SALMONELLA TYPHIMURIUM, Strain/Indicator: TA100, Metabolic Activation: RAT, LIVER, S-9, AROCLOR 1254 (10 OR 30%), Method: PREINCUBATION",inactive; negative
same,mutagenic call,"Test System: AMES SALMONELLA TYPHIMURIUM, Strain/Indicator: TA1535, Metabolic Activation: HAMSTER, LIVER, S-9, AROCLOR 1254 (10 OR 30%), Method: PREINCUBATION",inactive; negative
same,mutagenic call,[9],inactive; negative
same,mutagenic call,"Test System: AMES SALMONELLA TYPHIMURIUM, Strain/Indicator: TA1535, Metabolic Activation: RAT, LIVER, S-9, AROCLOR 1254 (10 OR 30%), Method: PREINCUBATION",inactive; negative
C=CC(=O)OCC (tested in a mixture with another compound),mutagenic call,[2],active; positive
same,mutagenic call,[10],active; positive
same,mutagenic call,[11],inactive; negative
[S]=[Co],mutagenic call,"Test System: CHINESE HAMSTER G10, Strain/Indicator: G10 (GPT)/6-THIOGUANINE, Metabolic Activation: NONE",inactive; negative
same,mutagenic call,"Test System: CHINESE HAMSTER G12, Strain/Indicator: G12 (GPT)/6-THIOGUANINE, Metabolic Activation: NONE",active; positive
same,mutagenic call,"Test System: CHINESE HAMSTER V-79, Strain/Indicator: V-79 (HPRT)/6-THIOGUANINE, Metabolic Activation: NONE",inactive; negative
NCC(=O)O,mutagenic call,[6],inactive; negative
same,mutagenic call,"Test System: AMES SALMONELLA TYPHIMURIUM, Strain/Indicator: TA97, Metabolic Activation: RAT, LIVER, S-9, AROCLOR 1254, Method: PREINCUBATION",inactive; negative
same,mutagenic call,"Test System: AMES SALMONELLA TYPHIMURIUM, Strain/Indicator: TA98, Metabolic Activation: HAMSTER, LIVER, S-9, AROCLOR 1254, Method: PREINCUBATION",inactive; negative
same,mutagenic call,[7],inactive; negative
same,mutagenic call,[3],inactive; negative
same,mutagenic call,"Test System: AMES SALMONELLA TYPHIMURIUM, Strain/Indicator: TA98, Metabolic Activation: RAT, LIVER, S-9, AROCLOR 1254, Method: PREINCUBATION",inactive; negative
same,mutagenic call,[1],inactive; negative
same,mutagenic call,"Test System: AMES SALMONELLA TYPHIMURIUM, Strain/Indicator: TA100, Metabolic Activation: HAMSTER, LIVER, S-9, AROCLOR 1254, Method: PREINCUBATION",inactive; negative
same,mutagenic call,[8],inactive; negative
same,mutagenic call,[4],inactive; negative
same,mutagenic call,"Test System: AMES SALMONELLA TYPHIMURIUM, Strain/Indicator: TA100, Metabolic Activation: RAT, LIVER, S-9, AROCLOR 1254, Method: PREINCUBATION",inactive; negative
same,mutagenic call,[2],inactive; negative
same,mutagenic call,"Test System: AMES SALMONELLA TYPHIMURIUM, Strain/Indicator: TA102, Metabolic Activation: NONE, Method: PREINCUBATION",inactive; negative
same,mutagenic call,"Test System: AMES SALMONELLA TYPHIMURIUM, Strain/Indicator: TA102, Metabolic Activation: RAT, LIVER, S-9, AROCLOR 1254, Method: PREINCUBATION",inactive; negative
same,mutagenic call,"Test System: AMES SALMONELLA TYPHIMURIUM, Strain/Indicator: TA1535, Metabolic Activation: HAMSTER, LIVER, S-9, AROCLOR 1254, Method: PREINCUBATION",inactive; negative
same,mutagenic call,[9],inactive; negative
same,mutagenic call,"Test System: AMES SALMONELLA TYPHIMURIUM, Strain/Indicator: TA1535, Metabolic Activation: NONE, Method: STANDARD PLATE",inactive; negative
same,mutagenic call,"Test System: AMES SALMONELLA TYPHIMURIUM, Strain/Indicator: TA1535, Metabolic Activation: RAT, LIVER, S-9, AROCLOR 1254, Method: PREINCUBATION",inactive; negative
same,mutagenic call,[10],inactive; negative
same,mutagenic call,"Test System: AMES SALMONELLA TYPHIMURIUM, Strain/Indicator: TA1537, Metabolic Activation: HAMSTER, LIVER, S-9, AROCLOR 1254, Method: PREINCUBATION",inactive; negative
same,mutagenic call,"Test System: AMES SALMONELLA TYPHIMURIUM, Strain/Indicator: TA1537, Metabolic Activation: NONE, Method: PREINCUBATION",inactive; negative
same,mutagenic call,"Test System: AMES SALMONELLA TYPHIMURIUM, Strain/Indicator: TA1537, Metabolic Activation: NONE, Method: STANDARD PLATE",inactive; negative
same,mutagenic call,"Test System: AMES SALMONELLA TYPHIMURIUM, Strain/Indicator: TA1537, Metabolic Activation: RAT, LIVER, S-9, AROCLOR 1254, Method: PREINCUBATION",inactive; negative
same,mutagenic call,"Test System: AMES SALMONELLA TYPHIMURIUM, Strain/Indicator: TA1537, Metabolic Activation: RAT, LIVER, S-9, AROCLOR 1254, Method: STANDARD PLATE",inactive; negative
same,mutagenic call,"Test System: AMES SALMONELLA TYPHIMURIUM, Strain/Indicator: TA1538, Metabolic Activation: NONE, Method: STANDARD PLATE",inactive; negative
same,mutagenic call,[11],inactive; negative
same,mutagenic call,"Test System: MOUSE LYMPHOMA, Strain/Indicator: L5178Y (TK+/TK-), Metabolic Activation: NONE",inactive; negative
same,mutagenic call,"Test System: MOUSE LYMPHOMA, Strain/Indicator: L5178Y (TK+/TK-), Metabolic Activation: RAT, LIVER, S-9, AROCLOR 1254",inactive; negative
same,mutagenic call,"Test System: MOUSE LYMPHOMA, Strain/Indicator: L5178Y (TK+/TK-), Metabolic Activation: RAT, LIVER, S-9, AROCLOR 1254, Method: SUSPENSION/PLATE",inactive; negative. reevaluation of results: inconclusive
same,mutagenic call,[5],active; inconclusive (previous evaluation positive)
same,mutagenic call,"Test System: UDS RAT PRIMARY HEPATOCYTES, Metabolic Activation: NONE",inactive; negative
